In publication PMC4410016 (Cell reports, 2015):

Legend:
[1] = molecular target: MtrF (Neisseria gonorrhoeae, UniProt Q9RNX2); experiment: isothermal titration calorimetry; type: binding
[2] = molecular target: MtrF (Neisseria gonorrhoeae, UniProt Q9RNX2, W420A); experiment: biochemical
[3] = molecular target: Neisseria gonorrhoeae MtrF transporter (Neisseria gonorrhoeae); experiment: SEC

Nc1ccc(C(=O)O)cc1 [p-aminobenzoic acid]
Kd [1]: 0.54 ± 0.02 µM
Kd [2]: 41.1 ± 11.5 µM

Nc1ccc(S(=O)(=O)Nc2ncccn2)cc1 [sulfadiazine]
Kd [1]: 12.7 ± 0.62 µM
Kd [2]: 106 ± 25.6 µM

Cc1cc(C)nc(NS(=O)(=O)c2ccc(N)cc2)n1 [sulfamethazine]
Kd [1]: 0.33 ± 0.02 µM
Kd [2]: 10.8 ± 1.17 µM

Nc1ccc(S(=O)(=O)Nc2nccs2)cc1 [sulfathiazole]
Kd [1]: 1.52 ± 0.07 µM
Kd [2]: 50.8 ± 8.9 µM

Neisseria gonorrhoeae MtrF transporter (natural protein)
stoichiometry N [3]: 2
